Test results as given in PubChem BioAssay (NCI).
Values after ≈ are worked out from the molar mass of the structure shown.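 1) Cells in 96-well plates. 2) Compound, 48 h, 5 concentrations. 3) Linear interpolation between surrounding doses. 4) Unreached endpoint = highest concentration. GI50 is the concentration that inhibits growth by half. Definition used: TGI = concentration required for complete inhibition of growth.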

Key:
Test in all cases: DTP human tumour cell line panel, 48 h
[1] = tested on: NCI-H522 lung
[2] = tested on: SNB-75 CNS
[3] = tested on: M14 melanoma
[4] = tested on: A498 renal
[5] = tested on: HS 578T breast
[6] = tested on: NCI/ADR-RES ovarian

| Structure (SMILES) | GI50 [1] [µg/mL] | GI50 [2] [µg/mL] | GI50 [3] [µg/mL] | GI50 [4] [nM] | TGI [4] [nM] | GI50 [5] [nM] | TGI [5] [nM] | GI50 [6] [nM] | TGI [6] [nM] |
| --- | --- | --- | --- | --- | --- | --- | --- | --- | --- |
| Nc1nc(SC2CCCCC2)nc2c1ncn2C1OC(CO)C(O)C1O (centres undefined) | 96.6 (≈ 253 µM) | 69.8 (≈ 183 µM) | 14.8 (≈ 38.7 µM) | – | – | – | – | – | – |
| C=C(C)[C@@H]1CC[C@]2(C(=O)OCCOCCOCC[P+](c3ccccc3)(c3ccccc3)c3ccccc3)CC[C@]3(C)[C@H](CC[C@@H]4[C@@]5(C)CC[C@H](OC(=O)C(Cl)Cl)C(C)(C)[C@@H]5CC[C@]43C)[C@@H]12 | – | – | – | 225 | 734 | 317 | 1880 | 1540 | 9000 |
